Assay results reported in ChEMBL document CHEMBL1201862, “PubChem BioAssay data set” (2004).
Active and inactive are the calls of the source.

Columns and labels:
Streptokinase A = target: T1, Streptokinase A (Streptococcus pyogenes serotype M1, UniProt P10520); experiment: viability-normalized secreted streptokinase activity reduction – plasminogen activation absorbance, OD405, dose response (AID 1914); format: functional, Streptococcus pyogenes M1 GAS;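 also: secreted streptokinase activity via plasminogen activation per viability signal from cell pellet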
T1 sequence (P10520 whole entry): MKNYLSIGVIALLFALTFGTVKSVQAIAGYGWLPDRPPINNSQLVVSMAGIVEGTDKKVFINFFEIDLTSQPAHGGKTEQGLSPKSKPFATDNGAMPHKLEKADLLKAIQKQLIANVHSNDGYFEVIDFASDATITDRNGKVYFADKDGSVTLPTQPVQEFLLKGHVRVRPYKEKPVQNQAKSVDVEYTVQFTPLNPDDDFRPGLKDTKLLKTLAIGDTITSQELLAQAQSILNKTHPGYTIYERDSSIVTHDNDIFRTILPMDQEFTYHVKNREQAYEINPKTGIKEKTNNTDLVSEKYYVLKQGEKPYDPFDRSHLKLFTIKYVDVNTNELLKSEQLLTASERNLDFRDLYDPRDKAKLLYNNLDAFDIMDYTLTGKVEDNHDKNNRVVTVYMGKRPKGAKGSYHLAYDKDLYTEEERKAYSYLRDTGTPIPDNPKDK

[1] = Luminescence Cell-Based Dose Response HTS to Identify Inhibitors of 5'UTR Stem-Loop Driven Prion Protein mRNA Translation in H4 Neuroglioblastoma Cells. [Related pubchem assays: 1827 (Project Summary), 1813 (Primary HTS)]; format: functional
[2] = alpha-synuclein stem-loop luciferase translation blockers – H4 neuroglioma cells, luminescence, confirmation (AID 1988); format: functional, cell-based
[3] = luciferase reporter signal suppression in cells – H4 neuroglioma cells, luminescence, dose response (AID 1990); format: functional, cell-based
[4] = Luminescence Cell-Based Dose Response HTS to Identify Activators of Luciferase Translation or Activity in H4 […] Cells. [Related pubchem assays: 1829 (Project Summary), 1814 (Primary HTS)]; format: functional
[5] = Luminescence Cell-Based Dose Confirmation HTS to Identify Activators of 5'UTR Stem-Loop Driven Alpha-Synuclein mRNA Translation in H4 Neuroglioblastoma Cells. [Related pubchem assays: 1829 (Project Summary), 1814 (Primary HTS)]; format: functional
H4 = experiment: Luminescence Cell-Based Dose Response HTS to Identify Activators of 5'UTR Stem-Loop Driven Prion Protein mRNA Translation in H4 Neuroglioblastoma Cells. [Related pubchem assays: 1829 (Project Summary), 1814 (Primary HTS)]; format: functional; conditions: Homo sapiens
Cytochrome P450 2C9 = Cytochrome P450 2C9 (Homo sapiens, UniProt P11712)
Streptococcus = experiment: GAS UMAA2166 growth inhibition – luminescence, BacTiterGlo, counter-screen for streptokinase expression inhibitor project, dose response (AID 1915); format: functional, organism-based;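 also: potency for reduction of bacterial viability or growth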
[6] = tested on: Streptococcus sp. 'group A'; experiment: Streptococcus pyogenes SK(-)GAS viability under kanamycin – luminescence, BacTiterGlo, confirmation, counter-screen for streptokinase expression inhibitor project, dose response (AID 1900); format: functional, organism-based
Cytochrome P450 2C19 = Cytochrome P450 2C19 (Homo sapiens, UniProt P33261); experiment: Cytochrome panel assay with activity outcomes. Panel member name: p450-cyp2c19 Compounds with AC50 equal or less than 10 uM are considered active; format: functional
[7] = Trypanosoma cruzi growth suppression in host cells – NIH3T3 host cells, beta-gal luminescence, confirmation (AID 2044); format: functional, cell-based;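 also: intracellular parasites grown in NIH/3T3 mouse fibroblasts as host cells; luminescent beta-galactosidase reporter signal from transgenic T. cruzi replicating inside host cells; inhibitors lower the luminescence signal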
[8] = NIH3T3 cell viability loss – ATP luminescence, mouse fibroblasts, counter-screen, dose response (AID 2010); format: functional, cell-based;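 also: cells exposed to compound for about 90 hours before reading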
INS1 = experiment: INS-1E survival protection against cytokine death – cell-based, luminescence, retest, dose response (AID 449756); format: functional; conditions: Rattus norvegicus;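 also: cell death triggered by IL-1 beta plus TNF-alpha plus IFN-gamma mixture; protective hits raise ATP signal compared with cytokine alone wells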
Cytochrome P450 1A2 = target: T2, Cytochrome P450 1A2 (Homo sapiens, UniProt P05177);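 also: PubChem cytochrome P450 panel assay, CYP1A2 panel member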
T2 sequence (P05177 whole entry): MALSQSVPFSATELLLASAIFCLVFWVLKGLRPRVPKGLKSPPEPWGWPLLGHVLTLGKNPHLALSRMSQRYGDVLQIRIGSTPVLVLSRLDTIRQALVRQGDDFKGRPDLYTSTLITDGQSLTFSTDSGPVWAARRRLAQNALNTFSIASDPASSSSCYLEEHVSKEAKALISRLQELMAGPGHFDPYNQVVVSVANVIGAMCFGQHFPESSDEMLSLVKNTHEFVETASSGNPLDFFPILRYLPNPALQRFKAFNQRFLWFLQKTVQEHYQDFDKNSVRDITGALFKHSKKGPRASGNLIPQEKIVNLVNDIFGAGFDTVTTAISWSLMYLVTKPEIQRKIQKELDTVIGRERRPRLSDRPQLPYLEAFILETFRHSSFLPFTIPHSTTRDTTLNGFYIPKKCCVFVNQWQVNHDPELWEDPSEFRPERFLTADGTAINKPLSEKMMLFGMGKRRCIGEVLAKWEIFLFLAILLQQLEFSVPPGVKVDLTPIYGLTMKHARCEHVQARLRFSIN

[9] = target: T3, Corticotropin-releasing factor receptor 2/Corticotropin-releasing factor-binding protein (Homo sapiens, UniProt P24387+Q13324); experiment: activators of CRF receptor 2 with binding protein – uHTS hits, confirmation (AID 602473); format: functional; conditions: read-out: EC50_Mean
T3 sequence (Q13324 whole entry): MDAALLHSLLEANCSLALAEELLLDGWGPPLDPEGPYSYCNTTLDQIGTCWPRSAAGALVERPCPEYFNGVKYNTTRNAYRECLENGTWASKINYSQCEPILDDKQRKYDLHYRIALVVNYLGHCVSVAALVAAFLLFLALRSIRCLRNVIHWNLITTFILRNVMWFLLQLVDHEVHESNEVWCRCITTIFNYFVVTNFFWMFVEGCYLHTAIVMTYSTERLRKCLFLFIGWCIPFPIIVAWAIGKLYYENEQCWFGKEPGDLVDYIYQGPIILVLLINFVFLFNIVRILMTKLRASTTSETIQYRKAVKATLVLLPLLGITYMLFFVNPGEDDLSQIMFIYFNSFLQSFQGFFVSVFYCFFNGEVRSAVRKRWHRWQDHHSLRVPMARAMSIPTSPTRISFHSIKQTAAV
T3 sequence (P24387 whole entry): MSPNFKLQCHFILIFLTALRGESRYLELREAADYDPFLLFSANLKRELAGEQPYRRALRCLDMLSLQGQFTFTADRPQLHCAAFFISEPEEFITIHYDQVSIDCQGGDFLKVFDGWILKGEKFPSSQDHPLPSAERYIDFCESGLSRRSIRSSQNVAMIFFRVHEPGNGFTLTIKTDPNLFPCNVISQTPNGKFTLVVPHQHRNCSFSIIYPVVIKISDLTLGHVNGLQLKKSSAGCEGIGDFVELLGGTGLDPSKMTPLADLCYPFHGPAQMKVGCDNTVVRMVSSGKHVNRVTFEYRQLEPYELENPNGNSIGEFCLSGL

Cytochrome P450 2C19, sequence (P33261 whole entry): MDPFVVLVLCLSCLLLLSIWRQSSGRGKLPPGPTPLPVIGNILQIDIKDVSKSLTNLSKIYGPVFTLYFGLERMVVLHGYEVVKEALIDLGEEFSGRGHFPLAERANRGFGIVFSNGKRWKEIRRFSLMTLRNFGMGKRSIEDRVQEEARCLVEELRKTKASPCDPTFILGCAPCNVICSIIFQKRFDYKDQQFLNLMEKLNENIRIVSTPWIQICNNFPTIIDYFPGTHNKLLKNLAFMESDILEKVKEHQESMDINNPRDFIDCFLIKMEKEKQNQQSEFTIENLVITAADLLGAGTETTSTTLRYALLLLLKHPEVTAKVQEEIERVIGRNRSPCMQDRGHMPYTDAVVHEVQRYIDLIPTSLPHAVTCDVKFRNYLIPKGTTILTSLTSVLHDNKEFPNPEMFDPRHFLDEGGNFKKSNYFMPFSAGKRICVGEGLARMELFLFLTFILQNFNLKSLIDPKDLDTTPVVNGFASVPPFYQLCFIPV
Cytochrome P450 2C9, sequence (P11712 whole entry): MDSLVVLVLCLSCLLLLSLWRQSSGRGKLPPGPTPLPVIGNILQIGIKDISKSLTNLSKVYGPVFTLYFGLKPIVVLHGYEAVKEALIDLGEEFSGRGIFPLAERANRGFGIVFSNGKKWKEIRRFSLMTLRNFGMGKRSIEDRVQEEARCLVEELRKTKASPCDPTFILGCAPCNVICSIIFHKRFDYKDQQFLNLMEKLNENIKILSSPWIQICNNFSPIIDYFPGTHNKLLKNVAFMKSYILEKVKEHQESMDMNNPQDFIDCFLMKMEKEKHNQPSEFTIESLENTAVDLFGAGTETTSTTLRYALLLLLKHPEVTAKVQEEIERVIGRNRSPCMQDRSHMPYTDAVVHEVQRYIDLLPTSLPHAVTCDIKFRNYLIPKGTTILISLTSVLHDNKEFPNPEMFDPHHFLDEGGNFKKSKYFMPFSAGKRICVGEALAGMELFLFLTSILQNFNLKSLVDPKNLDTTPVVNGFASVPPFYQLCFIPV

COc1ccc(-c2cc3nc[nH]c(=O)c3s2)cc1
EC50 (Streptokinase A): > 150 µM (not active)

COc1cc(/C=N/N=c2\[nH]c3ccccc3s2)cc([N+](=O)[O-])c1O
EC50 (Streptokinase A): > 150 µM (not active)

Brc1ccccc1C1=Nn2c(nnc2-c2ccccc2)SC1
EC50 [1]: > 120 µM (not active) | EC50 [2]: 38.4 µM (active) | EC50 [3]: 15.5 µM (active)

Cc1nn(-c2ccccc2)c2sc(C(=O)NC3CC3)cc12
EC50 [4]: 48.3 µM (active) | EC50 [5]: > 120 µM (not active) | EC50 (H4): 27.9 µM (active)

Clc1ccc(CSc2nccn2Cc2ccccc2)cc1
AC50 (Cytochrome P450 2C9): 22.4 µM (inconclusive) | EC50 (Streptococcus): > 150 µM (not active) | EC50 (Streptokinase A): 24.2 µM (inconclusive) | EC50 [6]: 33 µM (active)

O=C(CSc1ccc(Cl)cc1)Nc1ccc(N2CCN(c3ccccc3)CC2)c(F)c1
AC50 (Cytochrome P450 2C19; read-out: AC50): 3.55 µM (inconclusive)

COc1ccc(NC(=O)C(c2ccc(OC)cc2)N(C)C(=O)CNC(C)=O)cc1 (stereo not drawn)
AC50 (Cytochrome P450 2C19): inconclusive

O=c1c(-c2ccc(Cl)cc2)cnc2n1CCS2
EC50 [4]: 11.3 µM (active) | EC50 [5]: 13 µM (active) | EC50 (H4): 13.7 µM (active)

CCOC(=O)/C(=N\Nc1ccc(Cl)cc1)c1csc(Nc2ccccc2)n1
EC50 (Streptococcus): 37 µM (active) | EC50 (Streptokinase A): 20.9 µM (active) | EC50 [7]: 1.48 µM (active) | EC50 [8]: > 60 µM (not active) | EC50 [6]: 6.05 µM (active)

Cc1cc[n+](C(C)C(=O)c2ccc(-c3ccccc3)cc2)cc1 (stereo not drawn)
AC50 (INS1): 4.05 µM (active) | EC50 [7]: 3.33 µM (active) | EC50 [8]: > 60 µM (not active)

O=c1c(-c2ccc(F)cc2)nc2cnc(N3CCOCC3)nc2n1CCc1ccccc1
AC50 (Cytochrome P450 2C19; read-out: AC50): 39.8 µM (inconclusive) | AC50 (Cytochrome P450 1A2): 25.1 µM (inconclusive)

CCOc1ccc(S(=O)(=O)N2CCCCC2)c2ccccc12
EC50 [1]: > 120 µM (not active) | EC50 [2]: > 120 µM (not active) | EC50 [3]: 20.9 µM (active)

CSc1ccc(S(=O)(=O)Nc2ccc(N3CCOCC3)c(Cl)c2)cc1
AC50 (INS1): 29.8 µM (active)

O=C(Nc1nnc(C2=COCCO2)o1)c1ccc([N+](=O)[O-])s1
EC50 (Streptococcus): > 150 µM (not active) | EC50 (Streptokinase A): > 150 µM (not active) | EC50 [6]: 18.1 µM (active)

Clc1ccccc1Cn1nnc2c(N3CCOCC3)nc(C3CC3)nc21
EC50 [1]: > 120 µM (not active) | EC50 [2]: 27 µM (active) | EC50 [3]: 23.8 µM (active)

O=C(Cn1cc(C(F)(F)F)cc(Cl)c1=O)NCc1ccccc1
EC50 [4]: 31.6 µM (active) | EC50 [5]: 84.7 µM (active) | EC50 (H4): 18.5 µM (active)

O=C(O)c1cc(O)c2c(Cl)cc(Cl)cc2n1
AC50 (Cytochrome P450 2C19): inconclusive | AC50 (Cytochrome P450 1A2): 39.8 µM (inconclusive)

CC(=O)C(C(C)=O)c1cc(NS(=O)(=O)c2ccccc2)ccc1NS(=O)(=O)c1ccccc1
EC50 [9]: 9.35 µM (active)

COC(=O)C1=CN(C2CCCCC2)C=C(C(=O)OC)C1c1ccc2c(c1)OCO2
EC50 [1]: 57.5 µM (active) | EC50 [2]: > 120 µM (not active) | EC50 [3]: 15.8 µM (active) | EC50 [7]: 1.56 µM (active) | EC50 [8]: > 60 µM (inconclusive)
